Source: BigSolDB 2.1

SMILES: COc1ccc2[nH]cc(CCNC(C)=O)c2c1
- solubility (mole fraction) (in 2-ethoxyethanol, 278.15 K): 0.0643
- solubility (mole fraction) (in 2-ethoxyethanol, 283.15 K): 0.0729
- solubility (mole fraction) (in 2-ethoxyethanol, 288.15 K): 0.0809
- solubility (mole fraction) (in 2-ethoxyethanol, 293.15 K): 0.0919
- solubility (mole fraction) (in 2-ethoxyethanol, 298.15 K): 0.103
- solubility (mole fraction) (in 2-ethoxyethanol, 303.15 K): 0.113
- solubility (mole fraction) (in 2-ethoxyethanol, 308.15 K): 0.126
- solubility (mole fraction) (in 2-ethoxyethanol, 313.15 K): 0.138
- solubility (mole fraction) (in 2-ethoxyethanol, 318.15 K): 0.152
- solubility (mole fraction) (in 2-ethoxyethanol, 323.15 K): 0.168
- solubility (mole fraction) (in 2-methoxyethanol, 278.15 K): 0.0729
- solubility (mole fraction) (in 2-methoxyethanol, 283.15 K): 0.0819
- solubility (mole fraction) (in 2-methoxyethanol, 288.15 K): 0.0921
- solubility (mole fraction) (in 2-methoxyethanol, 293.15 K): 0.103
- solubility (mole fraction) (in 2-methoxyethanol, 298.15 K): 0.115
- solubility (mole fraction) (in 2-methoxyethanol, 303.15 K): 0.129
- solubility (mole fraction) (in 2-methoxyethanol, 308.15 K): 0.142
- solubility (mole fraction) (in 2-methoxyethanol, 313.15 K): 0.159
- solubility (mole fraction) (in 2-methoxyethanol, 318.15 K): 0.173
- solubility (mole fraction) (in 2-methoxyethanol, 323.15 K): 0.191
- solubility (mole fraction) (in DMF, 278.15 K): 0.177
- solubility (mole fraction) (in DMF, 283.15 K): 0.191
- solubility (mole fraction) (in DMF, 288.15 K): 0.205
- solubility (mole fraction) (in DMF, 293.15 K): 0.221
- solubility (mole fraction) (in DMF, 298.15 K): 0.235
- solubility (mole fraction) (in DMF, 303.15 K): 0.251
- solubility (mole fraction) (in DMF, 308.15 K): 0.267
- solubility (mole fraction) (in DMF, 313.15 K): 0.285
- solubility (mole fraction) (in DMF, 318.15 K): 0.302
- solubility (mole fraction) (in DMF, 323.15 K): 0.321
